Strand notation (5' to 3'): a small letter for the sugar, then the base; units joined by * are phosphorothioate-linked, units joined directly phosphodiester-linked; [ ] holds rarer units or linkages, { } end groups; capitals alone tell only the bases. [ms] = mesyl phosphoramidate linkage; k = constrained ethyl (cEt); [5mC] = 5-methylcytosine; d = 2'-deoxy (DNA)
test system: human APOE RNA; experiment: Dose-dependent inhibition of human APOE RNA in HepG2 cells, electroporation, 50,000 cells per well, RT-PCR normalized to GAPDH (Example 4, Tables 8-10); assay type: cell-based; conditions: 5 nM; HepG2, electroporation, 24-hour treatment
Experimental: Modified oligonucleotides selected from the examples above were tested at various doses in HepG2 cells. The modified oligonucleotides were tested in a series of experiments that had the same culture conditions. Each experiment is identified in separate tables below.
HepG2 cells plated at a density of 50,000 cells per well were treated by electroporation with various concentrations of modified oligonucleotide as specified in the tables below. […] APOE RNA levels were measured using the human primer probe set RTS3073 (forward sequence […], designated herein as SEQ ID NO: 7; reverse sequence CCATCAGCGCCCTCAGTT, designated herein as SEQ ID NO: 8; probe sequence […], designated herein as SEQ ID NO:9). APOE RNA levels were normalized to human GAPDH. […] Results are presented as percent APOE RNA, relative to the amount of APOE RNA in untreated control cells (UTC).

Row | Substance | APOE RNA (% UTC)
1 | 1746802 (k[5mC]*dT[ms]dT[ms]dG[ms]kG*kT*dG[ms]dA[ms]dA[ms]dT*d[5mC]*dT*dT*dT*dA[ms]dT*kT*dA[ms]kA*kA; antisense) [Compound 1746802] | 76
2 | 1746806 (k[5mC]*kT*dT[ms]dG[ms]kG*dT[ms]dG[ms]dA[ms]dA[ms]dT*d[5mC]*dT*dT*dT*dA[ms]dT*dT[ms]kA*kA*kA; antisense) [Compound 1746806] | 122
3 | 1746807 (k[5mC]*kT*dT[ms]dG[ms]dG[ms]kT*dG[ms]dA[ms]dA[ms]dT*d[5mC]*dT*dT*dT*dA[ms]dT*dT[ms]kA*kA*kA; antisense) [Compound 1746807] | 119

same assay, conditions: 13 nM; HepG2, electroporation, 24-hour treatment

Row | Substance | APOE RNA (% UTC)
4 | 1746802 (k[5mC]*dT[ms]dT[ms]dG[ms]kG*kT*dG[ms]dA[ms]dA[ms]dT*d[5mC]*dT*dT*dT*dA[ms]dT*kT*dA[ms]kA*kA; antisense) [Compound 1746802] | 108
5 | 1746806 (k[5mC]*kT*dT[ms]dG[ms]kG*dT[ms]dG[ms]dA[ms]dA[ms]dT*d[5mC]*dT*dT*dT*dA[ms]dT*dT[ms]kA*kA*kA; antisense) [Compound 1746806] | 101
6 | 1746807 (k[5mC]*kT*dT[ms]dG[ms]dG[ms]kT*dG[ms]dA[ms]dA[ms]dT*d[5mC]*dT*dT*dT*dA[ms]dT*dT[ms]kA*kA*kA; antisense) [Compound 1746807] | 127

same assay, conditions: 33 nM; HepG2, electroporation, 24-hour treatment

Row | Substance | APOE RNA (% UTC)
7 | 1746802 (k[5mC]*dT[ms]dT[ms]dG[ms]kG*kT*dG[ms]dA[ms]dA[ms]dT*d[5mC]*dT*dT*dT*dA[ms]dT*kT*dA[ms]kA*kA; antisense) [Compound 1746802] | 74
8 | 1746806 (k[5mC]*kT*dT[ms]dG[ms]kG*dT[ms]dG[ms]dA[ms]dA[ms]dT*d[5mC]*dT*dT*dT*dA[ms]dT*dT[ms]kA*kA*kA; antisense) [Compound 1746806] | 107
9 | 1746807 (k[5mC]*kT*dT[ms]dG[ms]dG[ms]kT*dG[ms]dA[ms]dA[ms]dT*d[5mC]*dT*dT*dT*dA[ms]dT*dT[ms]kA*kA*kA; antisense) [Compound 1746807] | 111

same assay, conditions: 82 nM; HepG2, electroporation, 24-hour treatment

Row | Substance | APOE RNA (% UTC)
10 | 1746802 (k[5mC]*dT[ms]dT[ms]dG[ms]kG*kT*dG[ms]dA[ms]dA[ms]dT*d[5mC]*dT*dT*dT*dA[ms]dT*kT*dA[ms]kA*kA; antisense) [Compound 1746802] | 72
11 | 1746806 (k[5mC]*kT*dT[ms]dG[ms]kG*dT[ms]dG[ms]dA[ms]dA[ms]dT*d[5mC]*dT*dT*dT*dA[ms]dT*dT[ms]kA*kA*kA; antisense) [Compound 1746806] | 91
12 | 1746807 (k[5mC]*kT*dT[ms]dG[ms]dG[ms]kT*dG[ms]dA[ms]dA[ms]dT*d[5mC]*dT*dT*dT*dA[ms]dT*dT[ms]kA*kA*kA; antisense) [Compound 1746807] | 86

same assay, conditions: 205 nM; HepG2, electroporation, 24-hour treatment

Row | Substance | APOE RNA (% UTC)
13 | 1746802 (k[5mC]*dT[ms]dT[ms]dG[ms]kG*kT*dG[ms]dA[ms]dA[ms]dT*d[5mC]*dT*dT*dT*dA[ms]dT*kT*dA[ms]kA*kA; antisense) [Compound 1746802] | 58
14 | 1746806 (k[5mC]*kT*dT[ms]dG[ms]kG*dT[ms]dG[ms]dA[ms]dA[ms]dT*d[5mC]*dT*dT*dT*dA[ms]dT*dT[ms]kA*kA*kA; antisense) [Compound 1746806] | 83
15 | 1746807 (k[5mC]*kT*dT[ms]dG[ms]dG[ms]kT*dG[ms]dA[ms]dA[ms]dT*d[5mC]*dT*dT*dT*dA[ms]dT*dT[ms]kA*kA*kA; antisense) [Compound 1746807] | 88

same assay, conditions: 512 nM; HepG2, electroporation, 24-hour treatment

Row | Substance | APOE RNA (% UTC)
16 | 1746802 (k[5mC]*dT[ms]dT[ms]dG[ms]kG*kT*dG[ms]dA[ms]dA[ms]dT*d[5mC]*dT*dT*dT*dA[ms]dT*kT*dA[ms]kA*kA; antisense) [Compound 1746802] | 57
17 | 1746806 (k[5mC]*kT*dT[ms]dG[ms]kG*dT[ms]dG[ms]dA[ms]dA[ms]dT*d[5mC]*dT*dT*dT*dA[ms]dT*dT[ms]kA*kA*kA; antisense) [Compound 1746806] | 80
18 | 1746807 (k[5mC]*kT*dT[ms]dG[ms]dG[ms]kT*dG[ms]dA[ms]dA[ms]dT*d[5mC]*dT*dT*dT*dA[ms]dT*dT[ms]kA*kA*kA; antisense) [Compound 1746807] | 62

same assay, conditions: 1,280 nM; HepG2, electroporation, 24-hour treatment

Row | Substance | APOE RNA (% UTC)
19 | 1746802 (k[5mC]*dT[ms]dT[ms]dG[ms]kG*kT*dG[ms]dA[ms]dA[ms]dT*d[5mC]*dT*dT*dT*dA[ms]dT*kT*dA[ms]kA*kA; antisense) [Compound 1746802] | 36
20 | 1746806 (k[5mC]*kT*dT[ms]dG[ms]kG*dT[ms]dG[ms]dA[ms]dA[ms]dT*d[5mC]*dT*dT*dT*dA[ms]dT*dT[ms]kA*kA*kA; antisense) [Compound 1746806] | 57
21 | 1746807 (k[5mC]*kT*dT[ms]dG[ms]dG[ms]kT*dG[ms]dA[ms]dA[ms]dT*d[5mC]*dT*dT*dT*dA[ms]dT*dT[ms]kA*kA*kA; antisense) [Compound 1746807] | 52

same assay, conditions: 3,200 nM; HepG2, electroporation, 24-hour treatment

Row | Substance | APOE RNA (% UTC)
22 | 1746802 (k[5mC]*dT[ms]dT[ms]dG[ms]kG*kT*dG[ms]dA[ms]dA[ms]dT*d[5mC]*dT*dT*dT*dA[ms]dT*kT*dA[ms]kA*kA; antisense) [Compound 1746802] | 47
23 | 1746806 (k[5mC]*kT*dT[ms]dG[ms]kG*dT[ms]dG[ms]dA[ms]dA[ms]dT*d[5mC]*dT*dT*dT*dA[ms]dT*dT[ms]kA*kA*kA; antisense) [Compound 1746806] | 39
24 | 1746807 (k[5mC]*kT*dT[ms]dG[ms]dG[ms]kT*dG[ms]dA[ms]dA[ms]dT*d[5mC]*dT*dT*dT*dA[ms]dT*dT[ms]kA*kA*kA; antisense) [Compound 1746807] | 29

same assay, conditions: 8,000 nM; HepG2, electroporation, 24-hour treatment

Row | Substance | APOE RNA (% UTC)
25 | 1746802 (k[5mC]*dT[ms]dT[ms]dG[ms]kG*kT*dG[ms]dA[ms]dA[ms]dT*d[5mC]*dT*dT*dT*dA[ms]dT*kT*dA[ms]kA*kA; antisense) [Compound 1746802] | 39
26 | 1746806 (k[5mC]*kT*dT[ms]dG[ms]kG*dT[ms]dG[ms]dA[ms]dA[ms]dT*d[5mC]*dT*dT*dT*dA[ms]dT*dT[ms]kA*kA*kA; antisense) [Compound 1746806] | 25
27 | 1746807 (k[5mC]*kT*dT[ms]dG[ms]dG[ms]kT*dG[ms]dA[ms]dA[ms]dT*d[5mC]*dT*dT*dT*dA[ms]dT*dT[ms]kA*kA*kA; antisense) [Compound 1746807] | 16

same assay, conditions: 20,000 nM; HepG2, electroporation, 24-hour treatment

Row | Substance | APOE RNA (% UTC)
28 | 1746802 (k[5mC]*dT[ms]dT[ms]dG[ms]kG*kT*dG[ms]dA[ms]dA[ms]dT*d[5mC]*dT*dT*dT*dA[ms]dT*kT*dA[ms]kA*kA; antisense) [Compound 1746802] | 3
29 | 1746806 (k[5mC]*kT*dT[ms]dG[ms]kG*dT[ms]dG[ms]dA[ms]dA[ms]dT*d[5mC]*dT*dT*dT*dA[ms]dT*dT[ms]kA*kA*kA; antisense) [Compound 1746806] | 37
30 | 1746807 (k[5mC]*kT*dT[ms]dG[ms]dG[ms]kT*dG[ms]dA[ms]dA[ms]dT*d[5mC]*dT*dT*dT*dA[ms]dT*dT[ms]kA*kA*kA; antisense) [Compound 1746807] | 30

same assay, conditions: HepG2, electroporation, 24-hour treatment

Row | Substance | IC50 [µM]
31 | 1746802 (k[5mC]*dT[ms]dT[ms]dG[ms]kG*kT*dG[ms]dA[ms]dA[ms]dT*d[5mC]*dT*dT*dT*dA[ms]dT*kT*dA[ms]kA*kA; antisense) [Compound 1746802] | 0.78
32 | 1746806 (k[5mC]*kT*dT[ms]dG[ms]kG*dT[ms]dG[ms]dA[ms]dA[ms]dT*d[5mC]*dT*dT*dT*dA[ms]dT*dT[ms]kA*kA*kA; antisense) [Compound 1746806] | 2.58
33 | 1746807 (k[5mC]*kT*dT[ms]dG[ms]dG[ms]kT*dG[ms]dA[ms]dA[ms]dT*d[5mC]*dT*dT*dT*dA[ms]dT*dT[ms]kA*kA*kA; antisense) [Compound 1746807] | 1.43

test system: human APOE RNA; experiment: Activity in APOE C57BL/6NTac-Apoeem7250 knock-in mice, single ICV bolus, 4 weeks (Example 10); assay type: in vivo; conditions: cortex; single ICV bolus 300 μg; 4 weeks post treatment; normalized to mouse Ppia
Experimental: Modified oligonucleotides described above were tested in the APOE C57BL/6NTac-Apoeem7250 knock-in mouse model described above.
APOE C57BL/6NTac-Apoeem7250 knock-in mice were divided into groups of 2-4 mice each. Each mouse received a single ICV bolus of 300 μg of modified oligonucleotide. A group of 3-4 mice received a single ICV bolus with PBS as a negative control.
Four weeks post treatment, mice were sacrificed and RNA was extracted from cortical brain tissue and spinal cord for quantitative real-time RT-PCR analysis of RNA expression of APOE using human primer probe set RTS3073 (described herein above). APOE RNA levels were normalized to mouse Ppia. Mouse Ppia was amplified using primer probe set m_cyclo24 (described herein above). Results are presented as percent human APOE RNA relative to the amount of human APOE RNA in PBS treated animals, (% control). Each experiment is identified in separate tables below.

Row | Substance | APOE RNA (% control) Cortex [% control]
34 | 1746802 (k[5mC]*dT[ms]dT[ms]dG[ms]kG*kT*dG[ms]dA[ms]dA[ms]dT*d[5mC]*dT*dT*dT*dA[ms]dT*kT*dA[ms]kA*kA; antisense) [Compound 1746802] | 72
35 | 1746806 (k[5mC]*kT*dT[ms]dG[ms]kG*dT[ms]dG[ms]dA[ms]dA[ms]dT*d[5mC]*dT*dT*dT*dA[ms]dT*dT[ms]kA*kA*kA; antisense) [Compound 1746806] | 92
36 | 1746807 (k[5mC]*kT*dT[ms]dG[ms]dG[ms]kT*dG[ms]dA[ms]dA[ms]dT*d[5mC]*dT*dT*dT*dA[ms]dT*dT[ms]kA*kA*kA; antisense) [Compound 1746807] | 90

same assay, conditions: spinal cord; single ICV bolus 300 μg; 4 weeks post treatment; normalized to mouse Ppia

Row | Substance | APOE RNA (% control) Spinal Cord [% control]
37 | 1746802 (k[5mC]*dT[ms]dT[ms]dG[ms]kG*kT*dG[ms]dA[ms]dA[ms]dT*d[5mC]*dT*dT*dT*dA[ms]dT*kT*dA[ms]kA*kA; antisense) [Compound 1746802] | 52
38 | 1746806 (k[5mC]*kT*dT[ms]dG[ms]kG*dT[ms]dG[ms]dA[ms]dA[ms]dT*d[5mC]*dT*dT*dT*dA[ms]dT*dT[ms]kA*kA*kA; antisense) [Compound 1746806] | 75
39 | 1746807 (k[5mC]*kT*dT[ms]dG[ms]dG[ms]kT*dG[ms]dA[ms]dA[ms]dT*d[5mC]*dT*dT*dT*dA[ms]dT*dT[ms]kA*kA*kA; antisense) [Compound 1746807] | 119

From US20250353873A1, “COMPOUNDS AND METHODS FOR MODULATING APOE EXPRESSION” (Ionis Pharmaceuticals, Inc., priority 2024, published 2025)
